The results in this text go back to ChEMBL document CHEMBL1124454, “2,3-Dihydro-5-benzofuranols as antioxidant-based inhibitors of leukotriene biosynthesis” (J Med Chem, 1989).

For series [1], the species on record is Homo sapiens. The series is described as follows: cells.
A further series in a line: physchem. The note with it: octanol/water.
For series [2], the species on record is Homo sapiens. Nature of the series: Inhibitory activity against Leukotriene (LTB4) biosynthesis in isolated human polymorphonuclear cells (PMNs); not active. The class given is functional.

Description for physchem: Partition coefficient (logP)

As to `COC(=O)c1ccc(OCCCOc2cc3c(cc2O)CCO3)cc1`, in the series listed under Homo sapiens [1], the IC50 – broadly, the concentration that inhibits the measured activity by half – amounted to 71 nM. For the same compound, the logP (usually a log measure of how a compound divides between an organic and an aqueous phase) in “physchem” is 3.7. Taken in the same sequence, the figures for `Oc1cc2c(cc1CCCOc1ccccc1)OCC2` were 57 nM and 4.3. Taken in the same sequence, the figures for `Cc1c(O)c(CCCSc2ccccc2)cc2c1CCO2` were 19 nM and 5.9. The matching figures for `OCCc1cccc(OCCCc2cc3c(cc2O)CCO3)c1`: 60 nM and 3.5. Consider `CC(C)c1cc2c(cc1O)CCO2`, for which the IC50 in the series filed under Homo sapiens [1] came to 300 nM. Besides, the logP in “physchem” was 3.3. Taken in the same sequence, the figures for `Oc1cc2c(cc1SCCCc1ccccc1)OCC2` were 28 nM and 4.9.

For the compound `Oc1cc2c(cc1CCCOc1ccc(F)cc1)OCC2`, inhibition in the series listed under Homo sapiens [1] was half-maximal at 28 nM (IC50). The compound further yielded a logP in the series “physchem” of 4.5. As for `CCCOc1cc2c(cc1O)CCO2`, in the series listed under Homo sapiens [1], the IC50 was 470 nM. In the series “physchem”, this compound came in with a logP of 2.6. Regarding `Oc1ccc2c(c1CCCSCc1cccnc1)CCO2`, in the series listed under Homo sapiens [1], the midpoint of inhibition, the IC50, lay at 2000 nM. This compound had a logP in the series “physchem” of 3.3. Taken in the same sequence, the figures for `Oc1ccc2c(c1CCCNc1ccccc1)CCO2` were 1400 nM and 3.8. Compound `CCCc1c(O)ccc2c1CCO2` gave an IC50 in the series filed under Homo sapiens [1] of 1000 nM. In the series “physchem”, the logP stood at 3.4. Taken in the same sequence, the figures for `Oc1cc2c(cc1Sc1cccnc1)OCC2` were 1200 nM and 2.8.

In the series listed under Homo sapiens [1], `Oc1ccc2c(c1CCCOc1ccccc1)CCO2` registered an IC50 of 290 nM. The compound further gave a logP in the series “physchem” of 4.3. `CCCc1cc2c(c(C(C)(C)C)c1O)CCO2` had an IC50 in the series listed under Homo sapiens [1] of 430 nM. This compound also displayed a logP in “physchem” of 5.4. Compound `CCCCOc1cc2c(cc1O)CCO2` came in with an IC50 in the series listed under Homo sapiens [1] of 180 nM. In the series “physchem”, this compound gave a logP of 3.1. Taken in the same sequence, the figures for `Oc1cc2c(cc1OCCCc1ccccc1)OCC2` were 51 nM and 4.2.

In turn, `COCCOc1cc2c(cc1O)CCO2` had an IC50 in the series filed under Homo sapiens [1] of 3200 nM. Also, in “physchem”, the logP is 1.3. Taken in the same sequence, the figures for `CC(C)(C)c1c(O)ccc2c1CCO2` were 730 nM and 3.7.

Take `O=C(O)CCCc1cc2c(cc1O)CCO2`: the IC50 entry in the series filed under Homo sapiens [2] is on record as “Not Active”. `Oc1cc2c(cc1Cc1ccccc1)OCC2` showed a half-inhibitory concentration (IC50) in the series listed under Homo sapiens [1] of 280 nM. For the same compound, the logP in the series “physchem” was 3.9. Take `Oc1cc2c(cc1Oc1ccccc1)OCC2`: the IC50 in the series filed under Homo sapiens [1] was 420 nM. Moreover, the logP in “physchem” amounted to 3.7. Taken in the same sequence, the figures for `COC(=O)c1cccc(OCCCOc2cc3c(cc2O)CCO3)c1` were 68 nM and 3.7. Taken in the same sequence, the figures for `Oc1cc2c(cc1Sc1ccccn1)OCC2` were 2800 nM and 2.8. Take `OCCc1ccc(OCCCc2cc3c(cc2O)CCO3)cc1`: the IC50 in the series filed under Homo sapiens [1] was 340 nM. Moreover, the logP in “physchem” is 3.5. The matching figures for `Oc1cc2c(cc1OCCCOc1ccccc1)OCC2`: 320 nM and 3.4.

As to `OCCCc1cc2c(cc1O)CCO2`, the IC50 in the series listed under Homo sapiens [1] was found to be 10000 nM. In addition, in the series “physchem”, the logP came to 1.4. The matching figures for `COC(=O)Cc1ccc(OCCCOc2cc3c(cc2O)CCO3)cc1`: 120 nM and 3.1. The compound `CCCc1ccc(OCCCc2cc3c(cc2O)CCO3)cc1` came in with an IC50 in the series filed under Homo sapiens [1] of 9 nM. The logP in the series “physchem” is 6.

In turn, `Oc1cc2c(cc1CCCSc1ccccc1)OCC2` had an IC50 in the series listed under Homo sapiens [1] of 19 nM. In the series “physchem”, this compound registered a logP of 4.9. Take `O=C(O)c1cccc(OCCCOc2cc3c(cc2O)CCO3)c1`: in the series filed under Homo sapiens [1], the IC50 is 5100 nM. This lies in the single-digit micromolar range. As for `Oc1cc2c(cc1CCCOc1ccc(Cl)cc1)OCC2`, the IC50 in the series filed under Homo sapiens [1] was 55 nM. The compound further had a logP in “physchem” of 5.1.

For the compound `CCCc1cc2c(cc1O)CCO2`, in the series listed under Homo sapiens [1], 290 nM corresponded to half-maximal inhibition (IC50). Besides, the lipophilicity (logP) in “physchem” worked out at 3.4.

For the compound `OCCCc1c(O)ccc2c1CCO2`, in the series listed under Homo sapiens [1], inhibition was half-maximal at 33000 nM (IC50). This compound also had a logP in the series “physchem” of 1.4. `CCCc1cc2c(c(Br)c1O)CCO2` gave an IC50 in the series filed under Homo sapiens [1] of 65 nM. The same compound came in with a logP in “physchem” of 4.3. Taken in the same sequence, the figures for `Oc1cc2c(cc1CCCSCc1cccnc1)OCC2` were 280 nM and 3.3. Taken in the same sequence, the figures for `CC(C)(C)c1cc2c(cc1O)CCO2` were 790 nM and 3.7. Take `Oc1cc2c(cc1Sc1ccncc1)OCC2`: the midpoint of inhibition in the series filed under Homo sapiens [1], the IC50, lay at 2600 nM. Moreover, in “physchem”, the logP was found to be 2.8. Taken in the same sequence, the figures for `N#CCCCc1cc2c(cc1O)CCO2` were 1400 nM and 1.8. The matching figures for `C=CCc1cc2c(c(C)c1O)CCO2`: 130 nM and 3.5.

In the series filed under Homo sapiens [1], `C=CCc1c(O)ccc2c1CCO2` returned an IC50 of 2100 nM. In “physchem”, this compound returned a logP of 2.9. Consider `Oc1cc2c(cc1Sc1ccccc1)OCC2`, for which the IC50 in the series listed under Homo sapiens [1] turned out to be 140 nM. In “physchem”, this compound came in with a logP of 4.1. Taken in the same sequence, the figures for `Oc1ccc2c(c1CCCSc1ccccc1)CCO2` were 120 nM and 4.9. The matching figures for `Oc1cc2c(cc1CCCNc1ccccc1)OCC2`: 140 nM and 3.8. The matching figures for `Oc1cc2c(cc1SCc1ccccc1)OCC2`: 110 nM and 4.1. As for `Oc1cc2c(cc1SCCc1ccccc1)OCC2`, in the series listed under Homo sapiens [1], the IC50 worked out at 66 nM. Also, the logP in the series “physchem” is 4.4.

With `COC(=O)c1ccccc1OCCCOc1cc2c(cc1O)CCO2`, in the series listed under Homo sapiens [1], the IC50 is 47 nM. In the series “physchem”, the logP was found to be 3.4. For `O=C(O)Cc1ccc(OCCCOc2cc3c(cc2O)CCO3)cc1`, in the series listed under Homo sapiens [2], the IC50 entry is given as “Not Active”.

Turning to `Oc1ccc2c(c1)CCO2`, the IC50 in the series filed under Homo sapiens [1] is 4000 nM. Also, the logP in “physchem” came to 1.7. The matching figures for `OCCc1ccccc1OCCCc1cc2c(cc1O)CCO2`: 290 nM and 3.5. Taken in the same sequence, the figures for `C=CCc1cc2c(cc1O)CCO2` were 480 nM and 2.9. The matching figures for `CCCc1cc2c(c(C)c1O)CCO2`: 160 nM and 4.1.

Take `O=C(O)c1ccccc1OCCCOc1cc2c(cc1O)CCO2`: the IC50 entry in the series filed under Homo sapiens [2] is listed as “Not Active”. Compound `O=C1CCN(c2ccccc2)N1` [PHENIDONE] yielded a 50% inhibitory concentration (IC50) in the series listed under Homo sapiens [1] of 8000 nM. This lies in the single-digit micromolar range.
